Values quoted from earlier work as cited in patent US20200078426A1, “TREATMENT OF CANCER BY INFUSION OF ONCOLYTIC HERPES SIMPLEX VIRUS TO THE BLOOD” (VIRTTU BIOLOGICS LIMITED, priority 2015, published 2020).

Tested on: squamous cell head and neck cancer
Conditions: concurrent chemo-radiation arm, unresectable locally advanced disease; radiation alone 23%

N.N.[Cl][Pt][Cl] [cisplatin]
three year overall survival: 37%
